The text below walks through data of patent US10287269B2, “Pyrazolyl pyrimidinone compounds as PDE2 inhibitors” (Merck Sharp & Dohme Corp., priority 2015, dated 2019).

As a reminder, the Ki is a measure of affinity in units of concentration, obtained from inhibition or displacement.

One data set concerns the target T1, human PDE2A1 (Homo sapiens, UniProt O00408).
T1 construct: GST; purchased BPS Bioscience (San Diego, Calif.) 60020; host or cells: insect cells
In words: PDE2 IMAP FP inhibition assay, human enzyme (PDE selectivity panel format). It is filed as biochemical. Conditions: Lab A; read-out: Human PDE2 Ki (nM) Lab A. The method, then: Selectivity for PDE2, as compared to other PDE families, was assessed using the IMAP® technology. Human PDE10A2 enzyme was prepared from cytosolic fractions of transiently transfected HEK cells. All other PDE's were GST Tag human enzyme expressed in insect cells and were obtained from BPS Bioscience (San Diego, Calif.): PDE1A (Cat#60010), human PDE2A1 (Cat#60020), PDE3A (Cat#60030), PDE4A1A (Cat#60040), PDE5A1 (Cat#60050), PDE6C (Cat#60060), PDE7A (Cat#60070), PDE8A1 (Cat#60080), PDE9A2 (Cat#60090), PDE11A4 (Cat#60110).
Assays for PDE 1 through 11 were performed in parallel at room temperature in 384-well microtiter plates with an incubation volume of 20.2 μL. Solutions of test compounds were prepared in DMSO and serially diluted with DMSO to yield 30 μL of each of ten solutions differing by 3-fold in concentration, at 32 serial dilutions per plate. […] A Labcyte POD 810 (Labcyte, Sunnyvale, Calif.) was used to dispense 200 nL from each well of the titration plate to make eleven copies of the assay plate for each titration, one copy for each PDE enzyme. A solution of each enzyme (dilution from aliquots, sufficient to produce 20% substrate conversion) and a separate solution of FAM-labeled cAMP or FAM-labeled cGMP from Molecular Devices (Sunnyvale, Calif., product # R7506 or cGMP#R7508), at a final concentration of 50 nM were made in the assay buffer (10 mM Tris HCl, pH 7.2, 10 mM MgCl2, 0.05% NaN3 0.01% Tween-20, and 1 mM DTT). Note that the substrate for PDE2 is 50 nM FAM cAMP containing 1000 nM of cGMP. The enzyme and the substrate were then added to the assay plates in two consecutive additions of 10 μL and then shaken to mix. The reaction was allowed to proceed at room temperature for 60 minutes. A binding solution was then made from the kit components, comprised of 80% Solution A, 20% Solution B and binding reagent at a volume of 1/600 the total binding solution. The enzymatic reaction was stopped by addition of 60 μL of the binding solution to each well of the assay plate. The plates were sealed and shaken for 10 seconds. The plates were incubated at room temperature for one hour, then the parallel and perpendicular fluorescence was measured using a Tecan Genios Pro plate reader (Tecan, Switzerland). The apparent inhibition constants for the compounds against all 11 PDE's was determined from the parallel and perpendicular fluorescent readings as described for PDE10 FP assay using the following apparent KM values for each enzyme and substrate combination: PDE1A (FAM cGMP) 70 nM, human PDE2A1 (FAM cAMP) 10,000 nM, PDE3A (FAM cAMP) 50 nM, PDE4A1A (FAM cAMP) 1500 nM, PDE5A1 (FAM cGMP) 400 nM, PDE6C (FAM cGMP) 700 nM, PDE7A (FAM cAMP) 150 nM, PDE8A1 (FAM cAMP) 50 nM, PDE9A2 (FAM cGMP) 60 nM, PDE10A2 (FAM cAMP) 150 nM, PDE11A4 (FAM cAMP) 1000 nM. The intrinsic PDE2 inhibitory activity of a compound which may be used in accordance with the present invention may be determined by these assays. […]

For data set [1] the following is noted: reported in Brandon et al. 2007; cited from earlier work.
The test system of another data set is other PDE isoforms. Particulars: reported in Brandon et al. 2007; cited from earlier work.

T1 sequence (O00408 1-920 isoform O00408-2): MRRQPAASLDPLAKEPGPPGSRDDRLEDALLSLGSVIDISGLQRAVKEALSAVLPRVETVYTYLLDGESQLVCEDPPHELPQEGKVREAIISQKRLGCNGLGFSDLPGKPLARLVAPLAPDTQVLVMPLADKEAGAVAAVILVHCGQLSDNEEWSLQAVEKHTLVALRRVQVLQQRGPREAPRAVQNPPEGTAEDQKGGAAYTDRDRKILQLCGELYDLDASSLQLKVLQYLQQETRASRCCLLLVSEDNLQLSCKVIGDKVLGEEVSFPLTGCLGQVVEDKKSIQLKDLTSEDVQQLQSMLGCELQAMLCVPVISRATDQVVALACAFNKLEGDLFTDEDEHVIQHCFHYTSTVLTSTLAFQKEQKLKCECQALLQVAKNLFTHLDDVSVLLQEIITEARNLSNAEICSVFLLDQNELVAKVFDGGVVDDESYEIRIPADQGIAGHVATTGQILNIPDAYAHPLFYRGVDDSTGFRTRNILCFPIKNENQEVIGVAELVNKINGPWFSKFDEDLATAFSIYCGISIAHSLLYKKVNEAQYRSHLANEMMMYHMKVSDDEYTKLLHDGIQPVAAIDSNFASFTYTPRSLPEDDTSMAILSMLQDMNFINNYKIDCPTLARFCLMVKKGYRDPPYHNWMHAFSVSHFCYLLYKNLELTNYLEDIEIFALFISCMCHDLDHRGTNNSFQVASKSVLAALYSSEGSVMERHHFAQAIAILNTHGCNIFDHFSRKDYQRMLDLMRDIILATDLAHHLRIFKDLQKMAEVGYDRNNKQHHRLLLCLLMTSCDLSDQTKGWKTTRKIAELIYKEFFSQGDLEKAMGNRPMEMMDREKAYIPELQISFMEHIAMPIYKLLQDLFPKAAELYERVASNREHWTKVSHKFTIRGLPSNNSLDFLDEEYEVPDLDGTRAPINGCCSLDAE

Turning to `CCc1ccc(C(CO)c2cnn(-c3cc(=O)[nH]c(C)n3)c2)c(Cl)c1` (single isomer, unassigned) [Example 121, (S)- or (R)-6-(4-(1-(2-chloro-4-ethylphenyl)-2-hydroxyethyl)-1H-pyrazol-1-yl)-2-methylpyrimidin-4(3H)-one], at human PDE2A1, the Ki stood at 8.4 nM. Turning to `Cc1nc(-c2cnn(C(CO)c3ccc(C(F)(F)F)cc3Cl)c2)cc(=O)[nH]1` (single isomer, unassigned) [Example 122, (R)- or (S)-6-(1-(1-(2-chloro-4-(trifluoromethyl)phenyl)-2-hydroxyethyl)-1H-pyrazol-4-yl)-2-methylpyrimidin-4(3H)-one], the Ki on human PDE2A1 was determined as 616 nM. In the case of `Cc1nc(-c2cnn(C(CO)c3ccc(C(F)(F)F)cc3Cl)c2)cc(=O)[nH]1` (single isomer, unassigned) [Example 123, (S)- or (R)-6-(1-(1-(2-chloro-4-(trifluoromethyl)phenyl)-2-hydroxyethyl)-1H-pyrazol-4-yl)-2-methylpyrimidin-4(3H)-one], at human PDE2A1, the inhibition constant Ki is 6.5 nM. For `COc1ccc(Cc2nn3c([C@@H](CCCc4ccccc4)[C@@H](C)O)nc(C)c3c(=O)[nH]2)cc1OC` [Bay 60-7550], in data set [1], the brain penetration entry was “limited brain penetration”. Also, the “potency at other PDE isoforms” value in the data set on other PDE isoforms is “significant potency”. As to `COC(=O)C(c1ccc(C(F)(F)F)cc1F)n1cc(-c2cc(=O)[nH]c(C)n2)cn1` (centres unmarked) [Example 113, methyl 2-(2-fluoro-4-(trifluoromethyl)phenyl)-2-(4-(2-methyl-6-oxo-1,6-dihydropyrimidin-4-yl)-1H-pyrazol-1-yl)acetate], the Ki on human PDE2A1 came out at 1970 nM.

For the compound `CCc1ccc(C(C(=O)OC)n2cc(-c3cc(=O)[nH]c(C)n3)cn2)c(Cl)c1` (centres unmarked) [Example 114, methyl 2-(2-chloro-4-ethylphenyl)-2-(4-(2-methyl-6-oxo-1,6-dihydropyrimidin-4-yl)-1H-pyrazol-1-yl)acetate], at human PDE2A1, the inhibition constant Ki was 1820 nM. Same read-out and setting: then `CCc1ccc(C(C)(O)c2cnn(-c3cc(=O)[nH]c(C)n3)c2)c(Cl)c1` (centres unmarked) [Example 119, 6-(4-(1-(2-chloro-4-ethylphenyl)-1-hydroxyethyl)-1H-pyrazol-1-yl)-2-methylpyrimidin-4(3H)-one], with 16.7 nM.
